This is an account of results in patent US9242982B2, “Pyridopyrimidine based derivatives as potential phosphodiesterase 3 (PDE3) inhibitors and a process for the preparation thereof” (COUNCIL OF SCIENTIFIC & INDUSTRIAL RESEARCH, priority 2013, dated 2016).

Sequence of PDE3 enzyme (Q14432 whole entry): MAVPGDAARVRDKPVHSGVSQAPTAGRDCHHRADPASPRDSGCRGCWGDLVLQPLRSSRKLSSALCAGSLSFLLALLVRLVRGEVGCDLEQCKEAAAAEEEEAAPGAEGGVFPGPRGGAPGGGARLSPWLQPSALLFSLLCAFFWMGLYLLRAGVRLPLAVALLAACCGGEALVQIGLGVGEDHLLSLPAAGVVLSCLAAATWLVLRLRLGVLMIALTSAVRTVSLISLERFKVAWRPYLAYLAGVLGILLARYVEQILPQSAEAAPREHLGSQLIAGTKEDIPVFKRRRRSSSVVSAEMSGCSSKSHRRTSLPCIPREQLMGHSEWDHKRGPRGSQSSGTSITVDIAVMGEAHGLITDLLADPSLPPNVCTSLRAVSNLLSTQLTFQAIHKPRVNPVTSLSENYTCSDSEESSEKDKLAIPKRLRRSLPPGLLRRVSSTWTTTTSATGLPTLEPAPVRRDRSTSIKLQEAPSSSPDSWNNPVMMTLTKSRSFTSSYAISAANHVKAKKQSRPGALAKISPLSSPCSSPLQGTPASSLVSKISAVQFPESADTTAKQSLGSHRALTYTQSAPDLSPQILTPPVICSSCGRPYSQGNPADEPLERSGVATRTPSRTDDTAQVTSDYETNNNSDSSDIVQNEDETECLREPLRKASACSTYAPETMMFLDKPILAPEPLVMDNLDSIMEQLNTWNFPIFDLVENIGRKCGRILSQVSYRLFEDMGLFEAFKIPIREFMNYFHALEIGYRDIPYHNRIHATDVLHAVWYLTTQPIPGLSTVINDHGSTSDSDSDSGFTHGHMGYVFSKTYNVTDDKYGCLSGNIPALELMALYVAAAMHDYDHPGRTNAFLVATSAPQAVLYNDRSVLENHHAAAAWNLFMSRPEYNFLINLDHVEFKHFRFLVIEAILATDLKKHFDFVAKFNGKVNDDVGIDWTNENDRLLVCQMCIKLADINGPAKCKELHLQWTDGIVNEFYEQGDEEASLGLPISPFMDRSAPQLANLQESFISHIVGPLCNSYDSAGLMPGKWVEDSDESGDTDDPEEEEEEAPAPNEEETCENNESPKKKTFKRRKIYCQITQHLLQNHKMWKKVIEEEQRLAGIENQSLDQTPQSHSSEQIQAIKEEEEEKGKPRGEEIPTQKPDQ

This experiment addresses PDE3 enzyme (Homo sapiens (Human), UniProt Q14432). The experiment can be described thus: PDE3 inhibition assay (BIOMOL GREEN Quantizyme Assay System). Conditions: PDE3 from platelets isolated from human blood; cAMP substrate; 1 hour at 37° C.; read at 620 nm. The class given is biochemical. On the procedure: PDE3 inhibition assay was performed a BIOMOL GREEN™ Quantizyme Assay System (catalogue No. BML-AK800-0001). The Platelets isolated from human blood were used as a source of PDE3 enzyme. 10 mL blood collected in a vacutainer tube (containing K3 EDTA) and centrifuged at 190×g for 15 min at room temperature. Top layer (platelet rich plasma) collected, centrifuged at 2500 g for 5 min at 22° C. (Room temp.) The pellet was washed with 2 ml of 50 mM tris buffer (pH-7.4) containing 1 mM MgCl2 and centrifuged at 2500 g for 5 min. Then 200 μl of assay buffer (from PDE kit, Enzo Life Sciences) was added to the pellet and sonicated at 30 s per ml. Pellet was freeze thawed for three times (−80° C.) in order to rupture the platelet membrane and release the PDE enzyme. Then the cell homogenate was centrifuged at 2500 rpm for 5 min. Supernatant was collected and used as source for PDE3 enzyme. In 96 well plate (Prod. No. BML-KI101), we added supernatant having PDE3 enzyme, PDE3 assay buffer, cAMP substrate, 5′ nucleotidase and test or standard compound and incubated for 1 hour at 37° C. The reaction was arrested by the addition 100 μl BIOMOL GREEN reagent incubated in room temp for 20 min. The green color developed was measured at 620 nm.
The in vitro Phosphodiestarase (PDE3) inhibitory activity of compounds 1a-q, were measured using a BIOMOL GREEN™ Quantizyme Assay System (catalogue No. BML-AK800-0001). The basic principle for this assay is the cleavage of c-AMP or c-GMP into their respective nucleotide by a cyclic nucleotide phosphodiesterase. The nucleotide (AMP or GMP) released is further cleaved into the nucleoside and phosphate by the enzyme 5′-nucleotidase. The extent of phosphate released is directly proportional to the PDE activity. In this screening method, the released phosphate by the enzymatic cleavage is quantified using BIOMOL GREEN reagent in a modified malachite green assay. The resulting green colour with λmax at 620 nm is directly proportional to the released phosphate and then PDE activity.
As to `Cn1c(=O)c2cc(Cc3ccccc3)c(=O)[nH]c2n(C)c1=O` [Compound 1a, 6-Benzyl-1,3-dimethyl-1,2,3,4,7,8-hexahydropyrido[2,3-d]pyrimidine-2,4,7-trione], it took 11800 nM to reach half-maximal inhibition (IC50).
To `Cn1c(=O)c2cc(Cc3ccccc3F)c(=O)[nH]c2n(C)c1=O` [Compound 1b, 6-(2-Fluorobenzyl)-1,3-dimethyl-1,2,3,4,7,8-hexahydropyrido[2,3-d]pyrimidine-2,4,7-trione] belongs 48.8 nM.
To `Cn1c(=O)c2cc(Cc3cccc(F)c3)c(=O)[nH]c2n(C)c1=O` [Compound 1c, 6-(3-Fluorobenzyl)-1,3-dimethyl-1,2,3,4,7,8-hexahydropyrido[2,3-d]pyrimidine-2,4,7-trione] belongs 32.3 nM; to `Cn1c(=O)c2cc(Cc3ccc(Cl)cc3)c(=O)[nH]c2n(C)c1=O` [Compound 1g, 6-(4-Chlorobenzyl)-1,3-dimethyl-1,2,3,4,7,8-hexahydropyrido[2,3-d]pyrimidine-2,4,7-trione], 12.5 nM.
To `Cn1c(=O)c2cc(Cc3ccccc3Br)c(=O)[nH]c2n(C)c1=O` [Compound 1i, 6-(2-Bromobenzyl)-1,3-dimethyl-1,2,3,4,7,8-hexahydropyrido[2,3-d]pyrimidine-2,4,7-trione] belongs 6.6 nM; to `Cn1c(=O)c2cc(Cc3ccc(Br)cc3)c(=O)[nH]c2n(C)c1=O` [Compound 1k, 6-(4-Bromobenzyl)-1,3-dimethyl-1,2,3,4,7,8-hexahydropyrido[2,3-d]pyrimidine-2,4,7-trione], 4.8 nM.
